The source of these data is patent US20130130306A1, “ZN (II) BASED COLORIMETRIC SENSOR AND PROCESS FOR THE PREPARATION THEREOF” (COUNCIL OF SCIENTIFIC & INDUSTRIAL RESEARCH, priority 2010, published 2013).

Values joined by “and” are separate entries in the source; they are usually repeats but may differ in a detail not shown here. Equal entries are not always repeated.

A short description of series [1]: UV-vis spectral response and spectrophotometric titration with ADP. It is filed as binding. The protocol:
In order to examine the binding behaviour of the Zn-complex (L.Zn) (Scheme 1, Formula 1A) to various important anions (like ATP, CTP, ADP, AMP, PPi, H2PO4^−, SO4^2−, CH3CO2^−, I^−, Br^−, Cl^− and F^−) the following experiment was conducted. A solution (˜21 mM) for of sodium salts of ATP, CTP, ADP, AMP, PPi, H2PO4^−, SO4^−, CH3CO2^−, I^−, Br^−, Cl^−, and F^− were prepared using respective salt in 10 mM HEPES buffer solutions (pH 7.2) and was stored for use. Further, a solution (44.35 μM) of the compound L.Zn (Scheme 1, Formula 1A) was prepared using doubly-distilled and deionized water and stored. These stored solutions were used on the day of preparation of the solution for experiment. […]
(§1) A solution of L.Zn (Scheme 1, Formula 1A) (8.87 μM) in aqueous medium was treated with excess amount of ˜500 μM of different phosphate anions like H2PO4^−, PPi, AMP, ADP, ATP and CTP. […] Thus L.Zn (Scheme 1, Formula 1A) can bind ATP selectively among various phosphate anions and the color change associated with the binding of ATP can be detected through naked eye (FIG. 2). […]

The nature of series [2]: UV-vis spectral response and spectrophotometric titration with ATP. In kind it is binding. Conditions: for binding constant for the formation of the complex L.Zn-ATP: spectrophotometric titration, pH 7.2, 10 mM HEPES, 25° C. Here is the method: In order to examine the binding behaviour of the Zn-complex (L.Zn) (Scheme 1, Formula 1A) to various important anions (like ATP, CTP, ADP, AMP, PPi, H2PO4^−, SO4^2−, CH3CO2^−, I^−, Br^−, Cl^− and F^−) the following experiment was conducted. A solution (˜21 mM) for of sodium salts of ATP, CTP, ADP, AMP, PPi, H2PO4^−, SO4^−, CH3CO2^−, I^−, Br^−, Cl^−, and F^− were prepared using respective salt in 10 mM HEPES buffer solutions (pH 7.2) and was stored for use. Further, a solution (44.35 μM) of the compound L.Zn (Scheme 1, Formula 1A) was prepared using doubly-distilled and deionized water and stored. These stored solutions were used on the day of preparation of the solution for experiment.
A test solution was used after 1 mL of a probe storage solution (the previously prepared and stored solution of 44.35 μM for the compound (L.Zn) (Scheme 1, Formula 1A of the present invention) was put in a 10 mL test tube, such that the final concentration of the probe storage solution was 8.87 μM. To this 4 mL of each of the previous prepared and stored solutions of ATP and other anions (CTP, ADP, AMP, PPi, H2PO4^−, SO4^2−, CH3CO2^−, I^−, Br^−, Cl^− and F^−) was added to the test tube such that the aliquot of each of the solutions was (17 mM). Then the resultant solution was used for UV-vis spectral measurement after appropriate base line correction using a double beam spectrophotometer (Shimadzu UV-3101 PC) and the results thereof are shown in FIG. 1.
Thus a red shift of 40 nm was observed on addition of the solution of ATP (˜1920 equiv.) to the solution of L.Zn (Scheme 1, Formula 1A). […]
as §1
A 1.0 mL of stored solution of L.Zn (Scheme 1, Formula 1A) ([L.Zn]=47.3 μM) was put in a test-tube, such that, the final concentration of the L.Zn solution was 9.46 μM. To this varying amount of ATP (0.1-4 mL of the stored ATP solution (21.6 mM) was added. Resulting solution was then diluted by addition of a 10 mM HEPES buffer solution (pH 7.2) maintaining total volume of the resultant aliquot of 5 mL, which was used for spectrophotometric measurements using a double beam spectrophotometer and quartz spectrophotometric cell (3.5 mL capacity). The total spectral change was measured using a double beam spectrophotometer (Shimadzu UV-3101 PC) after appropriate base line correction. Slit width for all experiments during this titration was kept unchanged at 0.2 nm and the results thereof are shown in FIG. 3. […]

Series [3] is described as follows: Lipophilic nature of the dye.
Setting [4] is: L.Zn 8.87 μM in aqueous medium, ~500 μM anion.

Turning to `CN(C)c1ccc(N=Nc2ccc(S(=O)(=O)N3CCCNCCNCCCNCC3)cc2)cc1.O=[N+]([O-])[O-].O=[N+]([O-])[O-].[Zn+2]` [L.Zn], in series [1] (setting [4]), the “color change on addition of ADP (naked eye)” value is “Slight color change”. Besides, the “binding constant for the formation of the complex L.Zn-ADP” value in series [1] (spectrophotometric titration, pH 7.2, 10 mM HEPES, 25° C.) is listed as 142 (±15) M^−1. The “color change on addition of ATP (naked eye)” value in series [2] (setting [4]) was “significant color change”. Also, in series [2] (from 463 nm to 503 nm, pH 7.2, ~1920 equiv. ATP), the “shift of absorption maxima on binding to ATP” value turned out to be 40 nm. Further, the “binding constant for the formation of the complex L.Zn-ATP” value in series [2] is 978 ± 15 M⁻¹ and 978 ± 4 M⁻¹; in series [2] (listed as compound of formula 1A) it was 978 ± 4 M⁻¹. Besides, the lipophilic nature entry in series [3] was “non-lipophilic”.
